26 compounds from patent US20090181963A1, “3H-[1,2,3]TRIAZOLO[4,5-D]PYRIMIDINE COMPOUNDS, THEIR USE AS mTOR KINASE AND PI3 KINASE INHIBITORS, AND THEIR [sequence]” (Wyeth, priority 2008, published 2009) can be followed below.

The IC50 is the point on the concentration scale where inhibition reaches its midpoint.

Molecules are shown by their SMILES.

For test [1], the target named is PI3 Kinase α (Homo sapiens, UniProt P42336). Kind of test: Fluorescence polarization assay for PI3K (PI3 Kinase α). It counts as biochemical. The settings on record: diC8-PI(4,5)P2 substrate, 25 μM ATP, one hour at 25° C.
Test [2] concerns the target PI3 Kinase γ (Homo sapiens, UniProt P48736). Kind of test: Fluorescence polarization assay for PI3K (PI3 Kinase γ). It is filed as biochemical. The settings on record: diC8-PI(4,5)P2 substrate, 25 μM ATP, one hour at 25° C. A general note: Fluorescence polarisation rises when a labelled molecule tumbles more slowly, as on binding a larger partner.
Method: Nunc 384 well black polypropylene fluorescent plates were used for PI3K assays. Reactions were quenched by the addition of EDTA to a final concentration of 10 μM. Final reaction volumes were 10 ml. […] Reactions were allowed to proceed for one hour at 25° C. After I hour, GST-tagged GRP1 (general receptor for phosphoinositides) PH domain fusion protein was added to a final concentration of 100 nM, and BODIPY-TMRI(1,3,4,5)P4 (Echelon) was also added to a final concentration of 5 nM. Final sample volumes were 25 μl with a final DMSO concentration of 0.8%. Assay Plates were read on PerkinElmer Envision plate readers with appropriate filters for Tamra [BODIPY-TMRI(1,3,4,5)P4]. Data obtained were used to calculate enzymatic activity and enzyme inhibition by inhibitor compounds.

Chain of PI3 Kinase α (P42336 whole entry): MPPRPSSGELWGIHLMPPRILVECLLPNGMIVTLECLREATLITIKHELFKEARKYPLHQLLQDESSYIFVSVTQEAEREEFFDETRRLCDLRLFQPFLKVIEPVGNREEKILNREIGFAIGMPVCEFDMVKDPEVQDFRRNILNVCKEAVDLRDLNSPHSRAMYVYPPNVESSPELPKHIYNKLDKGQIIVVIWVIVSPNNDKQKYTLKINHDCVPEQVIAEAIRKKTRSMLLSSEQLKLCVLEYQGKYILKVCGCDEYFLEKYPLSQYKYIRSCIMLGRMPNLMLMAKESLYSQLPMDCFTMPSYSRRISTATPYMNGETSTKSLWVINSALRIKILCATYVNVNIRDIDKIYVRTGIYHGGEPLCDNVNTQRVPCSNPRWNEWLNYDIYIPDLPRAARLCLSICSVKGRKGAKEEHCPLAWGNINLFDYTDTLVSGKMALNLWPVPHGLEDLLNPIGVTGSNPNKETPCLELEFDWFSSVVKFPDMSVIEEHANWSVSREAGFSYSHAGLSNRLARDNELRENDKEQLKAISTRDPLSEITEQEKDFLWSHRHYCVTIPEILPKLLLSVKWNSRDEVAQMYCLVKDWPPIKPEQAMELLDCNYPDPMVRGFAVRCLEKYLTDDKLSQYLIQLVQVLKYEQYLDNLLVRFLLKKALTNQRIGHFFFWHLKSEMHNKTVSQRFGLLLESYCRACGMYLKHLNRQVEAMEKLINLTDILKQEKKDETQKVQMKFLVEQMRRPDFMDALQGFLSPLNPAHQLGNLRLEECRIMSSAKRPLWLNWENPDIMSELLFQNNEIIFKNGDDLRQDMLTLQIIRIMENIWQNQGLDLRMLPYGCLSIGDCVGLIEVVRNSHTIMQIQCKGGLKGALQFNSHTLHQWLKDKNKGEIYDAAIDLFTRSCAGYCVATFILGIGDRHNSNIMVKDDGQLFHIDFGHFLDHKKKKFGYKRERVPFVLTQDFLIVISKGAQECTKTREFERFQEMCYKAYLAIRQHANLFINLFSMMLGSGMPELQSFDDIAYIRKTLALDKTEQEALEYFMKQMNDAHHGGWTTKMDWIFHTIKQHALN
Chain of PI3 Kinase α (P27986 whole entry partner): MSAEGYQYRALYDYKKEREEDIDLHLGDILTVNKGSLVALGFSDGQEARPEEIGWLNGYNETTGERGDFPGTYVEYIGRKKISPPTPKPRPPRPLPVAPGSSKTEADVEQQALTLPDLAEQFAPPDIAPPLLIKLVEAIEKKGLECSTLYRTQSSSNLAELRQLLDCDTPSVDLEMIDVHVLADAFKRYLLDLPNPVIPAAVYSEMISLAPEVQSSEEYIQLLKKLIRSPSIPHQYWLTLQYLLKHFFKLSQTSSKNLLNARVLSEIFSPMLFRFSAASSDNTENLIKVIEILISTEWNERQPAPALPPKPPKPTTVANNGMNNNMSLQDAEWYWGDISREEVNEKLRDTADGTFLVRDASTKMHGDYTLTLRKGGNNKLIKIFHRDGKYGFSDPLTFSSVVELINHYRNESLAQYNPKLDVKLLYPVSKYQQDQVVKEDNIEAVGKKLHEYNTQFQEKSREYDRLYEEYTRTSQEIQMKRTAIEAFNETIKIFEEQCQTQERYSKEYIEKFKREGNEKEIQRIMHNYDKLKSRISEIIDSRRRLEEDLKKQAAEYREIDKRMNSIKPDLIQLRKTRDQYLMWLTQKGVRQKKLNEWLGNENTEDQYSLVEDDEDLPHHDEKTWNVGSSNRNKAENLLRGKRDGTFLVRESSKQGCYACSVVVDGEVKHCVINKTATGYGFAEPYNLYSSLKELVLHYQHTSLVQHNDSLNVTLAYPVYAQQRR
Chain of PI3 Kinase γ (P48736 whole entry): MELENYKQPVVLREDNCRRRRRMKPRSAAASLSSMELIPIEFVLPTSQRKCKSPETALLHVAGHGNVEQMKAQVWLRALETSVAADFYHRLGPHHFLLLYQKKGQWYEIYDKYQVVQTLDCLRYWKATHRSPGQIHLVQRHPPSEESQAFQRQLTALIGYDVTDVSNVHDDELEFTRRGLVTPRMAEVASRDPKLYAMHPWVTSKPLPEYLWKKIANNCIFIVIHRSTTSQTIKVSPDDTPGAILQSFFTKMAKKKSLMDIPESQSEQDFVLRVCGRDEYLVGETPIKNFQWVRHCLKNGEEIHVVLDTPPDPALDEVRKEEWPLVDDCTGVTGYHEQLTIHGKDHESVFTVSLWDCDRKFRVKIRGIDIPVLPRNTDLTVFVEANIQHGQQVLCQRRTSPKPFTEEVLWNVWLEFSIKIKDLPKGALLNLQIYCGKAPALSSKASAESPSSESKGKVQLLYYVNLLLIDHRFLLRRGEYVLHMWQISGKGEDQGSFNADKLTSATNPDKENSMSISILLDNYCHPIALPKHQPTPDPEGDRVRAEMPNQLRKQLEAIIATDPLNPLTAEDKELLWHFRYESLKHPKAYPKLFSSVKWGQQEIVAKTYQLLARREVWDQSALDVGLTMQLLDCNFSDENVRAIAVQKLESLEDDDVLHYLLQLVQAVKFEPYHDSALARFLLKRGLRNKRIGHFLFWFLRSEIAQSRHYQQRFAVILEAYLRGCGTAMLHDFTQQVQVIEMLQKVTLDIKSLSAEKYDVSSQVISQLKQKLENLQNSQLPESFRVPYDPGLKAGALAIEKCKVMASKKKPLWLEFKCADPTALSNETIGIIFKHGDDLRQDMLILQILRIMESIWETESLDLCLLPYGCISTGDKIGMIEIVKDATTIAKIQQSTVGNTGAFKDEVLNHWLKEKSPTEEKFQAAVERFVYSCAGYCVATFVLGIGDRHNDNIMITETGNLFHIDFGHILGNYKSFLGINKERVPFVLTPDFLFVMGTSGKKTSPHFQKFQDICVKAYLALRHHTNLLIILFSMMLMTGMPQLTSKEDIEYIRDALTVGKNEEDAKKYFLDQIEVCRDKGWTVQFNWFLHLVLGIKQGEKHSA

With `CCn1nnc2c(N3CCOCC3)nc(-c3ccc(NC(=O)Nc4cccs4)cc3)nc21` [Example 40, 1-[4-(3-ethyl-7-morpholin-4-yl-3H-[1,2,3]triazolo[4,5-d]pyrimidin-5-yl)phenyl]-3-(2-thienyl)urea], the half-inhibitory concentration (IC50) came out at 2.5 nM in test [1] and 11.5 nM in test [2].
On the same counts, the results for `CCn1nnc2c(N3CCOCC3)nc(-c3ccc(NC(=O)Nc4ccc(C(=O)OC)cc4)cc3)nc21` [Example 41, methyl 4-({[4-(3-ethyl-7-morpholin-4-yl-3H-[1,2,3]triazolo[4,5-d]pyrimidin-5-yl)phenyl]carbamoyl}amino)benzoate] are 23.3 nM and 84.5 nM.
On the same counts, the results for `CCn1nnc2c(N3CCOCC3)nc(-c3ccc(NC(=O)Nc4ccc(C(=O)O)cc4)cc3)nc21` [Example 42, 4-({[4-(3-ethyl-7-morpholin-4-yl-3H-[1,2,3]triazolo[4,5-d]pyrimidin-5-yl)phenyl]carbamoyl}amino)benzoic acid] are 10.5 nM and 35.3 nM.
In the same order, the values of `CCn1nnc2c(N3CCOCC3)nc(-c3ccc(NC(=O)Nc4ccc(C(=O)NCCN(C)C)cc4)cc3)nc21` [Example 43, N-[2-(dimethylamino)ethyl]-4-({[4-(3-ethyl-7-morpholin-4-yl-3H-[1,2,3]triazolo[4,5-d]pyrimidin-5-yl)phenyl]carbamoyl}amino)benzamide] are 1 nM and 18 nM.
`CCn1nnc2c(N3CCOCC3)nc(-c3ccc(NC(=O)Nc4ccc(C(=O)N(C)CCN(C)C)cc4)cc3)nc21` [Example 45, N-[2-(dimethylamino)ethyl]-4-({[4-(3-ethyl-7-morpholin-4-yl-3H-[1,2,3]triazolo[4,5-d]pyrimidin-5-yl)phenyl]carbamoyl}amino)-N-methylbenzamide]: the IC50 in test [1] was less than 2.2 nM; in test [2], 11.3 nM.
On the same counts, the results for `CCn1nnc2c(N3CCOCC3)nc(-c3ccc(NC(=O)Nc4ccc(C(=O)NCCO)cc4)cc3)nc21` [Example 46, 4-({[4-(3-ethyl-7-morpholin-4-yl-3H-[1,2,3]triazolo[4,5-d]pyrimidin-5-yl)phenyl]carbamoyl}amino)-N-(2-hydroxyethyl)benzamide] are 2.8 nM and 14.5 nM.
On the same counts, the results for `CCn1nnc2c(N3CCOCC3)nc(-c3ccc(NC(=O)Nc4ccc(C(=O)NCCCN(C)C)cc4)cc3)nc21` [Example 47, N-[3-(dimethylamino)propyl]-4-({[4-(3-ethyl-7-morpholin-4-yl-3H-[1,2,3]triazolo[4,5-d]pyrimidin-5-yl)phenyl]carbamoyl}amino)benzamide] are less than 2.7 nM and 9 nM.
Turning to `CCn1nnc2c(N3CCOCC3)nc(-c3ccc(NC(=O)Nc4ccc(C(=O)N5CCC(N6CCOCC6)CC5)cc4)cc3)nc21` [Example 48, 1-[4-(3-ethyl-7-morpholin-4-yl-3H-[1,2,3]triazolo[4,5-d]pyrimidin-5-yl)phenyl]-3-{4-[(4-morpholin-4-ylpiperidin-1-yl)carbonyl]phenyl}urea], the IC50 came to 5.5 nM in test [1] and 31 nM in test [2].
On the same counts, the results for `CCn1nnc2c(N3CCOCC3)nc(-c3ccc(NC(=O)Nc4ccc(C(=O)NCCN5CCN(C)CC5)cc4)cc3)nc21` [Example 49, 4-({[4-(3-ethyl-7-morpholin-4-yl-3H-[1,2,3]triazolo[4,5-d]pyrimidin-5-yl)phenyl]carbamoyl}amino)-N-[2-(4-methylpiperazin-1-yl)ethyl]benzamide] are less than 3.1 nM and 25 nM.
For `CCn1nnc2c(N3CCOCC3)nc(-c3ccc(NC(=O)Nc4ccc(C(=O)N5CCC(N6CCCCC6)CC5)cc4)cc3)nc21` [Example 50, 1-[4-(1,4′-bipiperidin-1′-ylcarbonyl)phenyl]-3-[4-(3-ethyl-7-morpholin-4-yl-3H-[1,2,3]triazolo[4,5-d]pyrimidin-5-yl)phenyl]urea], the concentration for half-maximal inhibition (IC50) in test [1] is 1.8 nM; in test [2] it was 18 nM.
Consider `CCn1nnc2c(N3CCOCC3)nc(-c3ccc(NC(=O)Nc4ccc(C(=O)NCc5ccncc5)cc4)cc3)nc21` [Example 51, 4-({[4-(3-ethyl-7-morpholin-4-yl-3H-[1,2,3]triazolo[4,5-d]pyrimidin-5-yl)phenyl]carbamoyl}amino)-N-(pyridin-4-ylmethyl)benzamide], for which the IC50 in test [1] was determined as 3.6 nM; in test [2], 31 nM.
In the same order, the values of `CCn1nnc2c(N3CCOCC3)nc(-c3ccc(NC(=O)Nc4ccc(C(=O)N(C)CCNC)cc4)cc3)nc21` [Example 52, 4-({[4-(3-ethyl-7-morpholin-4-yl-3H-[1,2,3]triazolo[4,5-d]pyrimidin-5-yl)phenyl]carbamoyl}amino)-N-methyl-N-[2-(methylamino)ethyl]benzamide] are less than 1.9 nM and 11.5 nM.
On the same counts, the results for `CCn1nnc2c(N3CCOCC3)nc(-c3ccc(NC(=O)Nc4ccc(C(=O)NCCN5CCOCC5)cc4)cc3)nc21` [Example 53, 4-({[4-(3-ethyl-7-morpholin-4-yl-3H-[1,2,3]triazolo[4,5-d]pyrimidin-5-yl)phenyl]carbamoyl}amino)-N-(2-morpholin-4-ylethyl)benzamide] are 3.5 nM and 29 nM.
On the same counts, the results for `CCn1nnc2c(N3CCOCC3)nc(-c3ccc(NC(=O)Nc4ccc(C(=O)N5CCN[C@H](C)C5)cc4)cc3)nc21` [Example 54, 1-[4-(3-ethyl-7-morpholin-4-yl-3H-[1,2,3]triazolo[4,5-d]pyrimidin-5-yl)phenyl]-3-(4-{[(3R)-3-methylpiperazin-1-yl]carbonyl}phenyl)urea] are less than 1.8 nM and 7 nM.
For the compound `CCn1nnc2c(N3CCOCC3)nc(-c3ccc(NC(=O)Nc4ccc(C(=O)NCCCN5CCN(C)CC5)cc4)cc3)nc21` [Example 55, 4-({[4-(3-ethyl-7-morpholin-4-yl-3H-[1,2,3]triazolo[4,5-d]pyrimidin-5-yl)phenyl]carbamoyl}amino)-N-[3-(4-methylpiperazin-1-yl)propyl]benzamide], the IC50 in test [1] is 1.5 nM; in test [2], 16.5 nM.
On the same counts, the results for `CCn1nnc2c(N3CCOCC3)nc(-c3ccc(NC(=O)Nc4ccc(C(=O)NCCN5CCCCC5)cc4)cc3)nc21` [Example 56, 4-({[4-(3-ethyl-7-morpholin-4-yl-3H-[1,2,3]triazolo[4,5-d]pyrimidin-5-yl)phenyl]carbamoyl}amino)-N-(2-piperidin-1-ylethyl)benzamide] are 1.7 nM and 11 nM.
On the same counts, the results for `CCn1nnc2c(N3CCOCC3)nc(-c3ccc(NC(=O)Nc4ccc(C(=O)N5CCNC(C)(C)C5)cc4)cc3)nc21` [Example 57, 1-{4-[(3,3-dimethylpiperazin-1-yl)carbonyl]phenyl}-3-[4-(3-ethyl-7-morpholin-4-yl-3H-[1,2,3]triazolo[4,5-d]pyrimidin-5-yl)phenyl]urea] are less than 1.7 nM and 7 nM.
Take `CCn1nnc2c(N3CCOCC3)nc(-c3ccc(NC(=O)Nc4ccc(C(=O)N5CCN(c6ccccn6)CC5)cc4)cc3)nc21` [Example 58, 1-[4-(3-ethyl-7-morpholin-4-yl-3H-[1,2,3]triazolo[4,5-d]pyrimidin-5-yl)phenyl]-3-{4-[(4-pyridin-2-ylpiperazin-1-yl)carbonyl]phenyl}urea]: the IC50 in test [1] is 2.5 nM; in test [2], 14 nM.
In the same order, the values of `CCN1CCCC1CNC(=O)c1ccc(NC(=O)Nc2ccc(-c3nc(N4CCOCC4)c4nnn(CC)c4n3)cc2)cc1` (stereo not shown) [Example 59, 4-({[4-(3-ethyl-7-morpholin-4-yl-3H-[1,2,3]triazolo[4,5-d]pyrimidin-5-yl)phenyl]carbamoyl}amino)-N-[(1-ethylpyrrolidin-2-yl)methyl]benzamide] are 2.5 nM and 26 nM.
In the same order, the values of `CCn1nnc2c(N3CCOCC3)nc(-c3ccc(NC(=O)Nc4ccc(C(N)=O)cc4)cc3)nc21` [Example 60, 4-({[4-(3-ethyl-7-morpholin-4-yl-3H-[1,2,3]triazolo[4,5-d]pyrimidin-5-yl)phenyl]carbamoyl}amino)benzamide] are less than 2.6 nM and 16.5 nM.
In the same order, the values of `CCn1nnc2c(N3CCOCC3)nc(-c3ccc(NC(=O)Nc4ccc(C(=O)N(C)C)cc4)cc3)nc21` [Example 61, 4-({[4-(3-ethyl-7-morpholin-4-yl-3H-[1,2,3]triazolo[4,5-d]pyrimidin-5-yl)phenyl]carbamoyl}amino)-N,N-dimethylbenzamide] are 1.6 nM and 12 nM.
`CCCCNC(=O)c1ccc(NC(=O)Nc2ccc(-c3nc(N4CCOCC4)c4nnn(CC)c4n3)cc2)cc1` [Example 62, N-butyl-4-({[4-(3-ethyl-7-morpholin-4-yl-3H-[1,2,3]triazolo[4,5-d]pyrimidin-5-yl)phenyl]carbamoyl}amino)benzamide]: the half-maximal inhibitory concentration (IC50) came to 6 nM in test [1] and 33 nM in test [2].
On the same counts, the results for `CCn1nnc2c(N3CCOCC3)nc(-c3ccc(NC(=O)Nc4ccc(C(=O)NCCc5ccccn5)cc4)cc3)nc21` [Example 63, 4-({[4-(3-ethyl-7-morpholin-4-yl-3H-[1,2,3]triazolo[4,5-d]pyrimidin-5-yl)phenyl]carbamoyl}amino)-N-(2-pyridin-2-ylethyl)benzamide] are 4.5 nM and 30 nM.
Regarding `CCNC(=O)c1ccc(NC(=O)Nc2ccc(-c3nc(N4CCOCC4)c4nnn(CC)c4n3)cc2)cc1` [Example 64, N-ethyl-4-({[4-(3-ethyl-7-morpholin-4-yl-3H-[1,2,3]triazolo[4,5-d]pyrimidin-5-yl)phenyl]carbamoyl}amino)benzamide], the values for the IC50 in test [1] and in test [2] were 3.3 nM and 15.5 nM, respectively.
On the same counts, the results for `CCn1nnc2c(N3CCOCC3)nc(-c3ccc(NC(=O)NC4CCN(C(=O)OCc5ccccc5)CC4)cc3)nc21` [Example 65, benzyl 4-({[4-(3-ethyl-7-morpholin-4-yl-3H-[1,2,3]triazolo[4,5-d]pyrimidin-5-yl)phenyl]carbamoyl}amino)piperidine-1-carboxylate] are 5630 nM and 1800 nM.
On the same counts, the results for `CCn1nnc2c(N3CCOCC3)nc(-c3ccc(NC(=O)NC4CCNCC4)cc3)nc21` [Example 66, 1-[4-(3-ethyl-7-morpholin-4-yl-3H-[1,2,3]triazolo[4,5-d]pyrimidin-5-yl)phenyl]-3-piperidin-4-ylurea] are 400 nM and 2770 nM.
